Source: patent publication EP0024372A1, “Derivatives of clavulanic acid, their preparation and pharmaceutical compositions containing them” (BEECHAM GROUP PLC, priority 1979, dated 1981)

Columns and labels:
Assay in all cases: standard MIC microtitre synergy test with ampicillin
Assay type in all cases: cell-based
Proteus mirabilis C889 = system: Proteus mirabilis C889
Excerpt: (§1) In a standard MIC microtitre synergy test with ampicillin the following results were obtained with the compound of Example 7.

E.coli JT39 = system: E.coli JT39
Excerpt: as §1

Klebsiella aerogenes E70 = system: Klebsiella aerogenes E70
Excerpt: as §1

[1] = system: Staphylococcus aureus Russell; settings: one cell spanning Inhibitor Concentration 20, 5 and 1 μg/ml
Excerpt: as §1

[2] = Inhibitor Concentration 1 μg/ml
[3] = Inhibitor Concentration 5 μg/ml
[4] = Inhibitor Concentration 20 μg/ml

- MIC microtitre synergy test with ampicillin (Proteus mirabilis C889; [2]): 16
- MIC microtitre synergy test with ampicillin (Proteus mirabilis C889; [3]): 16
- MIC microtitre synergy test with ampicillin (Proteus mirabilis C889; [4]): 8
- MIC microtitre synergy test with ampicillin (E.coli JT39; [2]): 125
- MIC microtitre synergy test with ampicillin (E.coli JT39; [3]): 16
- MIC microtitre synergy test with ampicillin (E.coli JT39; [4]): 2
- MIC microtitre synergy test with ampicillin (Klebsiella aerogenes E70; [2]): 12.5
- MIC microtitre synergy test with ampicillin (Klebsiella aerogenes E70; [3]): 6.25
- MIC microtitre synergy test with ampicillin (Klebsiella aerogenes E70; [4]): 3.1
- MIC microtitre synergy test with ampicillin [1]: - Inhibition -
Structure (SMILES): O=C(O)[C@H]1/C(=C/Cc2ccccc2O)O[C@@H]2CC(=O)N21 [Example 7, Lithium 9-(2-hydroxyphenyl)deoxyclavulanate]
